Data as given in PubChem BioAssay (NCI).
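Interpolation was linear, between the two tested concentrations surrounding the appropriate level; five concentrations were tested over 48 hours in 96-well plates. TGI: total growth inhibition.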

Tests used:
Experiment in all cases: growth of human tumour cells (NCI), 48 h
786-0 renal = system: 786-0 renal
A498 renal = system: A498 renal
A549 NSCLC = system: A549 NSCLC
ACHN renal = system: ACHN renal
BT-549 breast = system: BT-549 breast
CAKI-1 renal = system: CAKI-1 renal
CCRF-CEM leukemia = system: CCRF-CEM leukemia
COLO 205 colon = system: COLO 205 colon
DU-145 prostate = system: DU-145 prostate
EKVX NSCLC = system: EKVX NSCLC
HCC-2998 colon = system: HCC-2998 colon
HCT-116 colon = system: HCT-116 colon
HCT-15 colon = system: HCT-15 colon
HOP-62 NSCLC = system: HOP-62 NSCLC
HOP-92 NSCLC = system: HOP-92 NSCLC
HS 578T breast = system: HS 578T breast
HT29 colon = system: HT29 colon
IGROV1 ovarian = system: IGROV1 ovarian
K-562 leukemia = system: K-562 leukemia
KM12 colon = system: KM12 colon
LOX IMVI melanoma = system: LOX IMVI melanoma
M14 melanoma = system: M14 melanoma
MALME-3M melanoma = system: MALME-3M melanoma
MCF7 breast = system: MCF7 breast
MDA-MB-231 breast = system: MDA-MB-231 breast
MDA-MB-435 = system: MDA-MB-435
MDA-N = system: MDA-N
MOLT-4 leukemia = system: MOLT-4 leukemia
NCI-H226 lung = system: NCI-H226 lung
NCI-H23 lung = system: NCI-H23 lung
NCI-H460 lung = system: NCI-H460 lung
NCI-H522 lung = system: NCI-H522 lung
NCI/ADR-RES ovarian = system: NCI/ADR-RES ovarian
OVCAR-3 ovarian = system: OVCAR-3 ovarian
OVCAR-4 ovarian = system: OVCAR-4 ovarian
OVCAR-5 ovarian = system: OVCAR-5 ovarian
OVCAR-8 ovarian = system: OVCAR-8 ovarian
PC-3 prostate = system: PC-3 prostate
RXF 393 renal = system: RXF 393 renal
SF-268 CNS = system: SF-268 CNS
SF-295 CNS = system: SF-295 CNS
SF-539 CNS = system: SF-539 CNS
SK-MEL-28 melanoma = system: SK-MEL-28 melanoma
SK-MEL-5 melanoma = system: SK-MEL-5 melanoma
SK-OV-3 ovarian = system: SK-OV-3 ovarian
SN12C renal = system: SN12C renal
SNB-19 CNS = system: SNB-19 CNS
SW-620 colon = system: SW-620 colon
T-47D breast = system: T-47D breast
TK-10 renal = system: TK-10 renal
U251 CNS = system: U251 CNS
UACC-257 melanoma = system: UACC-257 melanoma
UACC-62 melanoma = system: UACC-62 melanoma
UO-31 renal = system: UO-31 renal

Measured: TGI

CC(O)CN1c2ccccc2Sc2ccccc21 (centres undefined)
> 100 µM: 786-0 renal | A498 renal | A549 NSCLC | ACHN renal | BT-549 breast | CAKI-1 renal | CCRF-CEM leukemia | COLO 205 colon | DU-145 prostate | EKVX NSCLC | HCC-2998 colon | HCT-116 colon | HCT-15 colon | HOP-62 NSCLC | HOP-92 NSCLC | HS 578T breast | HT29 colon | IGROV1 ovarian | K-562 leukemia | KM12 colon | LOX IMVI melanoma | M14 melanoma | MALME-3M melanoma | MCF7 breast | MDA-MB-231 breast | MDA-MB-435 | MDA-N | MOLT-4 leukemia | NCI-H226 lung | NCI-H23 lung | NCI-H460 lung | NCI-H522 lung | NCI/ADR-RES ovarian | OVCAR-3 ovarian | OVCAR-4 ovarian | OVCAR-5 ovarian | OVCAR-8 ovarian | PC-3 prostate | RXF 393 renal | SF-268 CNS | SF-295 CNS | SF-539 CNS | SK-MEL-28 melanoma | SK-MEL-5 melanoma | SK-OV-3 ovarian | SN12C renal | SNB-19 CNS | SW-620 colon | T-47D breast | TK-10 renal | U251 CNS | UACC-257 melanoma | UACC-62 melanoma | UO-31 renal
